Measurements: patent publication US20260217651A1 (priority 2022, published 2026)
Read-outs that look alike come from different tables or passages of the source.

Legend:
SD rats [1] = test: animal or person; type: in vivo, rat; conditions: iv; for minimal effective dose: Rattus norvegicus, read-out: Minimal effective anesthetic dose(mg/kg); for Onset time / Righting Reflex Duration / Sedation Duration: rat, in vivo
SD rats [2] = test: animal or person; type: in vivo; conditions: Rattus norvegicus, iv, read-out: Minimal effective analgesic dose(mg/kg)

SMILES	minimal effective dose (SD rats [1])	Onset time (SD rats [1])	Righting Reflex Duration (SD rats [1])	Sedation Duration (SD rats [1])	minimal effective dose (SD rats [2])
CCOC(=O)N(c1ccc(C)cc1)N1CCN(c2cc(C(C)C)c(O)c(C(C)C)c2)CC1 [Cpd-66]	20 to 40 mg/kg	0.22 min	40.40 min	115.20 min	20 to 40 mg/kg
CCOC(=O)N(c1cccc(OC)c1)N1CCN(c2cc(C(C)C)c(O)c(C(C)C)c2)CC1 [Cpd-63]	10 to 20 mg/kg	0.18 to 0.50 min	6.92 to 33.82 min	50.33 to 193.58 min	20 to 40 mg/kg
COC(=O)N(c1ccccc1)N1CCN(c2cc(C(C)C)c(O)c(C(C)C)c2)CC1 [Cpd-45]	5 to 10 mg/kg	0.38 to 0.58 min	9.45 to 21.03 min	21.22 to 30.92 min	5 to 10 mg/kg
CCC(=O)N(c1ccccc1)N1CCN(c2cc(C(C)C)c(O)c(C(C)C)c2)CC1 [Cpd-46]	5 to 10 mg/kg	1.58 min	2.17 min	12.95 min	5 to 10 mg/kg
CCOC(=O)N(c1ccc(Cl)cc1)N1CCN(c2cc(C(C)C)c(O)c(C(C)C)c2)CC1 [Cpd-65]	10 to 20 mg/kg	0.92 to 1.17 min	11.30 to 16.67 min	101.42 to 123.97 min	10 to 20 mg/kg
CCOC(=O)N(c1ccccc1)N1CCN(c2cc(C(C)C)c(O)c([C@@H](C)C3CC3)c2)CC1 [Cpd-105]	5 to 10 mg/kg	0.68 to 1.80 min	0.24 to 22.82 min	50.17 to 52.20 min	10 to 20 mg/kg
CCOC(=O)N(c1cccc(Cl)c1)N1CCN(c2cc(C(C)C)c(O)c([C@H](C)C3CC3)c2)CC1 [Cpd-69]	10 to 20 mg/kg	0.68 to 2.12 min	1.28 to 74.05 min	19.78 to 160.07 min	10 to 20 mg/kg
CCC(=O)N(c1ccccc1)C1CCN(c2cc(C(C)C)c(O)c(C(C)C)c2)CC1 [Cpd-1]	< 5 mg/kg	0.38 to 0.62 min	6.27 to 10.78 min	19.02 to 22.97 min	< 5 mg/kg
CCOC(=O)N(c1ccc(SC)cc1)N1CCN(c2cc(C(C)C)c(O)c(C(C)C)c2)CC1 [Cpd-97]	5 to 10 mg/kg	0.20 to 0.60 min	5.25 to 32.28 min	31.60 to 83.28 min	10 to 20 mg/kg
CCOC(=O)N(c1ccc(Cl)cc1)N1CCN(c2cc(C(C)C)c(O)c([C@H](C)C3CC3)c2)CC1 [Cpd-73]	10 to 20 mg/kg	0.83 to 1.65 min	8.78 to 25.28 min	44.83 to 119.62 min	20 to 40 mg/kg
CC(C)OC(=O)C1(c2ccccc2)CCN(c2cc(C(C)C)c(O)c(C(C)C)c2)CC1 [Cpd-26]	5 to 10 mg/kg	0.98 to 1.77 min	12.33 to 28.05 min	26.52 to 182.97 min	5 to 10 mg/kg
CCOC(=O)N(Cc1ccc(OC)cc1)N1CCN(c2cc(C(C)C)c(O)c(C(C)C)c2)CC1 [Cpd-124]	20 to 40 mg/kg	0.15 to 0.68 min	2.83 to 65.08 min		20 to 40 mg/kg
CCOC(=O)N(c1ccc(OC(C)C)cc1)N1CCN(c2cc(C(C)C)c(O)c(C(C)C)c2)CC1 [Cpd-100]	20 to 40 mg/kg	0.37 to 0.95 min	6.65 to 26.68 min	62.20 to 114.60 min	20 to 40 mg/kg
CCOC(=O)C1(c2ccc(Cl)cc2Cl)CCN(c2cc(C(C)C)c(O)c(C(C)C)c2)CC1 [Cpd-28]	20 to 40 mg/kg	0.73 to 1.02 min	2.97 to 12.00 min	31.98 to 218.72 min	20 to 40 mg/kg
